Laboratory results from ChEMBL document CHEMBL1201862, “PubChem BioAssay data set” (2004).
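Step 1: Grow cells in 96-well plates. Step 2: Expose to compound for 48 hours at 5 concentrations. Step 3: Interpolate endpoints linearly; if unreached, use highest concentration. GI50 = concentration required for 50% inhibition of growth.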 Active and inactive are the calls of the source. Cut-off read from the data, not from the text of the source: active = GI50 up to about 1.1 µM and inactive = higher.

Assays:
Assay in all cases: DTP human tumour cell line panel, 48 h
ACHN = system: ACHN
LXFL 529 = system: LXFL 529
SK-MEL-28 = system: SK-MEL-28
SNB-75 = system: SNB-75
HOP-62 = system: HOP-62
M14 = system: M14
CCRF-CEM = system: CCRF-CEM
IGROV-1 = system: IGROV-1
NCI-H23 = system: NCI-H23
SF-539 = system: SF-539
Malme-3M = system: Malme-3M
786-0 = system: 786-0
OVCAR-5 = system: OVCAR-5
NCI-H522 = system: NCI-H522
K562 = system: K562
SK-OV-3 = system: SK-OV-3
CAKI-1 = system: CAKI-1

Measured: GI50

COc1cc2c(c(O)c1C)C(=O)CC(c1ccccc1)O2 (stereo not drawn)
inactive: ACHN 43.7 µM | LXFL 529 56.2 µM | SK-MEL-28 > 100 µM | SNB-75 28.8 µM | HOP-62 > 100 µM | M14 > 10 µM | CCRF-CEM > 10 µM | IGROV-1 61.9 µM | NCI-H23 22.4 µM | SF-539 > 100 µM | Malme-3M 91.4 µM | 786-0 59.7 µM | OVCAR-5 39.1 µM | NCI-H522 50.2 µM | K562 50.2 µM | SK-OV-3 36.2 µM | CAKI-1 94.8 µM

CC(C)(C)c1cc([Si](C)(C)C)c(C#N)c([Si](C)(C)C)c1
inactive: ACHN 87.3 µM | LXFL 529 > 100 µM | SK-MEL-28 > 100 µM | SNB-75 47.3 µM | HOP-62 > 100 µM | M14 > 100 µM | CCRF-CEM 48.6 µM | IGROV-1 > 100 µM | NCI-H23 76.9 µM | SF-539 > 100 µM | Malme-3M > 100 µM | 786-0 > 100 µM | OVCAR-5 > 100 µM | NCI-H522 46.6 µM | K562 > 100 µM | SK-OV-3 > 100 µM | CAKI-1 > 100 µM

C=CC/N=C1\N=C(C)C(C(=O)OCC)S1 (stereo not drawn)
inactive: ACHN > 100 µM | LXFL 529 > 100 µM | SK-MEL-28 > 100 µM | SNB-75 > 100 µM | HOP-62 > 100 µM | M14 > 100 µM | CCRF-CEM 7.05 µM | IGROV-1 > 100 µM | NCI-H23 > 100 µM | SF-539 > 100 µM | Malme-3M > 100 µM | 786-0 > 100 µM | OVCAR-5 > 100 µM | NCI-H522 > 100 µM | K562 > 100 µM | SK-OV-3 > 100 µM | CAKI-1 > 100 µM

Cc1cc(O)nc(NNC(C#N)c2ccco2)n1 (stereo not drawn)
inactive: ACHN > 100 µM | LXFL 529 > 100 µM | SK-MEL-28 > 100 µM | SNB-75 37.2 µM | HOP-62 > 100 µM | M14 > 100 µM | CCRF-CEM > 100 µM | IGROV-1 > 100 µM | NCI-H23 > 100 µM | SF-539 > 100 µM | Malme-3M > 100 µM | 786-0 > 100 µM | OVCAR-5 > 100 µM | NCI-H522 > 100 µM | K562 > 100 µM | SK-OV-3 > 100 µM | CAKI-1 > 100 µM

COC12C=CC(CC1)c1c(O)ccc(O)c12 (stereo not drawn)
inactive: ACHN 39.3 µM | LXFL 529 25.4 µM | SK-MEL-28 87.5 µM | SNB-75 53.7 µM | HOP-62 > 100 µM | M14 57.7 µM | CCRF-CEM 20.6 µM | IGROV-1 > 100 µM | NCI-H23 > 86.1 µM | SF-539 > 100 µM | Malme-3M > 51.5 µM | 786-0 > 64.9 µM | OVCAR-5 > 100 µM | NCI-H522 16.8 µM | K562 22.6 µM | SK-OV-3 > 100 µM | CAKI-1 > 80.9 µM

CC(C)(c1ccc(Oc2ccc(C#N)c(C#N)c2)cc1)c1ccc(Oc2ccc(C#N)c(C#N)c2)cc1
inactive: ACHN > 10 µM | LXFL 529 > 10 µM | SK-MEL-28 > 10 µM | SNB-75 1.78 µM | HOP-62 > 10 µM | M14 > 10 µM | CCRF-CEM > 10 µM | IGROV-1 > 10 µM | NCI-H23 > 10 µM | SF-539 > 10 µM | Malme-3M > 10 µM | 786-0 > 10 µM | OVCAR-5 > 10 µM | NCI-H522 > 10 µM | K562 > 10 µM | SK-OV-3 > 10 µM | CAKI-1 > 10 µM

CC(C)N(C(=O)C12CC3CC(CC(C3)C1)C2)C(C)C
inactive: ACHN > 50 µM | LXFL 529 > 50 µM | SK-MEL-28 > 50 µM | SNB-75 > 50 µM | HOP-62 > 50 µM | M14 > 50 µM | CCRF-CEM > 50 µM | IGROV-1 > 50 µM | NCI-H23 > 50 µM | SF-539 > 50 µM | Malme-3M > 50 µM | 786-0 > 50 µM | OVCAR-5 > 50 µM | NCI-H522 > 50 µM | K562 > 50 µM | SK-OV-3 > 50 µM | CAKI-1 > 50 µM

CN(C(=O)c1ccc([N+](=O)[O-])cc1)c1ccccc1
inactive: ACHN > 100 µM | LXFL 529 > 100 µM | SK-MEL-28 > 100 µM | SNB-75 87.9 µM | HOP-62 > 100 µM | M14 > 100 µM | CCRF-CEM > 100 µM | IGROV-1 > 100 µM | NCI-H23 > 100 µM | SF-539 > 100 µM | Malme-3M > 100 µM | 786-0 > 100 µM | OVCAR-5 > 100 µM | NCI-H522 > 100 µM | K562 > 10 µM | SK-OV-3 > 100 µM | CAKI-1 > 100 µM

C/C(=C(/C)c1cc[n+](C)cc1)c1cc[n+](C)cc1
inactive: ACHN > 75 µM | LXFL 529 69.8 µM | SK-MEL-28 > 75 µM | SNB-75 > 75 µM | HOP-62 > 75 µM | M14 > 75 µM | CCRF-CEM > 75 µM | IGROV-1 34.4 µM | NCI-H23 > 75 µM | SF-539 > 75 µM | Malme-3M > 75 µM | 786-0 > 75 µM | OVCAR-5 > 75 µM | NCI-H522 18.8 µM | K562 54.8 µM | SK-OV-3 > 75 µM | CAKI-1 > 75 µM
